# Data published in article PMC7033278, “A Nonpeptide Oxytocin Receptor Agonist for a Durable Relief of Inflammatory Pain” (Scientific Reports, 2020).
# Read-outs that look alike come from different tables or passages of the source.
# Tests used:
# [1] = distribution and clearance after i.p. injection, LC-MS/MS; assay type: in vivo; conditions: ip, rat, 10 mg/kg i.p.
# Method: Brains from rat injected with 10 mg/kg (18.8 µmol/kg) i.p. of LIT-001 were homogenized with an Ultra Turrax instrument (Ika, Staufen, Germany) in 2 ml of H2O (Figs. 4, S4). The homogenates were then sonicated (3 times 10 s, 100 W) with a Vibra Cell apparatus (Sonics, Newtown, U.S.A.). Protein concentrations were determined using the Bradford method (Protein Assay, Bio-Rad, Marne-la-Coquette, France). 400 µl was mixed with 4 ml of ice cold acetonitrile (ACN) and let 30 min on ice. Samples were then centrifuged (20,000 × g, 30 min) at 4 °C. Supernatants were dried under vacuum and resuspended in 400 µl ACN 10%/H2O 89.9%/formic acid 0.1% (v/v/v) and a volume of 5 µl was injected on the LC-MS/MS. For CSF, plasma and urine, 200 µl of fluids were mixed with 1 ml of ice cold acetonitrile (ACN) and let 30 min on ice. Samples were then centrifuged (20,000 × g, 30 min) at 4 °C. Supernatants were dried under vacuum and suspended in 200 µl ACN 10%/H2O 89.9%/formic acid 0.1% (v/v/v) and a volume of 5 µl was injected on the LC-MS/MS.
# Analyses were performed on a Dionex Ultimate 3000 HPLC system (Thermo Scientific, San Jose, USA) coupled with a triple quadrupole Endura mass spectrometer (Thermo Scientific). The system was controlled by Xcalibur v.2.0 software (Thermo Electron). Samples were loaded onto an Accucore C18 RP-MS column (ref 17126–151030; 150 × 1 mm 2.6 μm, Thermo Scientific) heated at 40 °C. The presence of LIT-001 was studied using the multiple reaction monitoring mode (MRM). Elution was performed at a flow rate of 150 µl/min by applying a linear gradient of mobile phases A/B. Mobile phase A corresponded to ACN 1%/H2O 98.9%/formic acid 0.1% (v/v/v), whereas mobile phase B was ACN 99.9%/formic acid 0.1% (v/v). The gradient used is detailed in Fig. S4. […] Desolvation (nitrogen) sheath gas was set to 27 Arb and Aux gas was set to 9 Arb. The ion transfer tube was heated at 312 °C. Q1 and Q2 resolutions were set at 0.7 FWHM, whereas collision gas (CID, argon) was set to 2 mTorr. Identification of the compounds was based on precursor ion, selective fragment ions and retention times obtained for LIT-001. Selection of the monitored transitions and optimization of collision energy and RF Lens parameters were manually determined (see Fig. S4 for details). Qualification and quantification were performed in MRM mode. Quantification was obtained using Quan Browser software (Thermo Scientific). For tissues and fluids, LIT-001 was quantified using calibration curves of external standards of LIT-001 (125 fmol to 100 pmol/injection; Fig. S4) added to urine, plasma or brain extracts of naive rat and submitted to the same procedure described for respective fluids and tissue recovery. The amounts of LIT-001 measured in samples fit within the standard curve limits, with typical analytical ranges (the range of amounts that can be accurately quantified) from […].
# V1bR (hV1BR) = system: V1bR (hV1BR); parameters: method as in PMID 30199637; conditions: cited from earlier work
# [2] = system: CFA-induced inflammatory pain model; experiment: CFA-induced edema size (hindpaw diameter); assay type: in vivo; conditions: rat, i.p. LIT-001 10 mg/kg at D1 after CFA
# Method: LIT-001 was prepared as described in Frantz et al.[20]. For in vivo biological assays, it was dissolved in carboxymethyl cellulose (CMC, 1%) - NaCl (0.9%) and administered at the dose of 10 mg/kg. LIT-001 or vehicle were injected intraperitoneally (i.p.), in a volume of 10 ml/kg[20], 24 h after the induction of the CFA-induced painful inflammatory sensitization. To confirm the implication of the OTR we injected (i.p.) also L-368,899 (Sigma, St. Louis, MO) (1 mg/kg), an OTR antagonist, in combination with LIT-001 in another group of rats[11].
# Male Wistar rats (300 g; JANVIER LABS, Le Genest St. Isle, France) were used for this study. They were housed by groups of 3 or 4 under standard conditions (room temperature, 22 °C; 12/12 h light/dark cycle) with ad libitum access to food and water and behavioral enrichment. All animals were manipulated and habituated to the tests and to the room for at least 2 weeks. All behavioral tests were done during the light period (i.e., between 7:00 and 19:00). All the procedures were performed in accordance with European committee council Direction, authorization from French Department of Agriculture and from the regional ethic committee.
# In order to induce a peripheral inflammation, 100 μl of complete Freund adjuvant (CFA; Sigma, St. Louis, MO), was injected in the right hindpaw of the rat. […]
# [3] = thermodynamic solubility in PBS pH 7.4; assay type: physicochemical; conditions: PBS buffer, read-out: thermodynamic water solubility (S)
# Method: Solubility of LIT-001 was determined from solution of about 1 mg of compound in 500 μl of PBS at pH 7.4. (Figs. 1, S1) The solution was stirred at room temperature for 24 h and centrifuged at 15.000 × g for 5 min. The supernatant was diluted with a mixture of acetonitrile and water and analyzed by HPLC with a diode detector (Gilson; Kinetex 2.6 μm C18 100 A 50 × 4.6 mm column). […] The lipophilicity (LogD7.4) of LIT-001 was measured using […] of a stock solution diluted with different concentrations of octanol and PBS to cover a LogP range from −2 to + 4.5 in a final volume of 1 ml. After stirring for 1 h at room temperature (≈ 20 °C), the samples were centrifuged and the different phases were analyzed by HPLC (Gilson; diode detector, Kinetex 2.6 μ C18 100 A 50 × 4.6 mm column).
# [4] = CSF, read-out: concentration in CSF
# [5] = brain, read-out: concentration in brain
# [6] = plasma, read-out: concentration in plasma
# [7] = urine, read-out: concentration in urine
compound,measurement,setting,value
Cc1cc(C(=O)N2Cc3cnn(C)c3Nc3ccccc32)ccc1CNC(=O)N1CCC[C@H]1C(=S)N(C)C [LIT-001],concentration at 60 min,[1]; [4],7.4 ± 4.4 nM
same,concentration at 300 min,[1]; [4],1.5 ± 1.1 nM
same,concentration at 60 min,[1]; [5],1.6 ± 0.8 nM
same,concentration at 300 min,[1]; [5],0.6 ± 0.4 nM
same,concentration at 30 min,"[1]; plasma, 30 min (highest)",650 ± 200 nM
same,concentration at 60 min,[1]; [6],626 ± 112 nM
same,concentration at 300 min,[1]; [6],95.2 ± 36.5 nM
same,concentration at 60 min,[1]; [7],52500 ± 14200 nM
same,concentration at 300 min,[1]; [7],189000 ± 8480 nM
same,EC50 (hV1BR),V1bR (hV1BR); agonist mode,non significant
same,agonist or antagonist effect on V1bR,V1bR (hV1BR),devoid of agonist or antagonist effect
same,CFA-induced edema size,[2],9.49 ± 0.23 mm
same,solubility thermodynamic at 24 h,"[3]; pH 7.4, aqueous buffer, thermodynamic from solid",530 ± 30 µM
same,solubility thermodynamic at 24 h,[3]; pH 7.4,340 µg/mL
